Structure (SMILES)	melting point [°C]
COC(=O)C1CCc2oc3cc(OC)ccc3c2C1=O (configuration not stated)	173 to 175
C/C=C/C=C(\C[C@H](N)C(=O)O)C(=O)O	190
COC(=O)[C@@H]1C(=O)N(C)c2ccccc2C[C@H]1c1ccc2c(c1)OCO2 (racemic)	125 to 127
CNC(=O)N1CC(Oc2cccc(C(F)(F)F)c2)C1	145 to 147
Nc1nc(Oc2ccccc2)c2nc[nH]c2n1	228
CCc1cccc(C)c1S(=O)(=O)c1nn(C(=O)N(CC)CC)cc1Cl	68 to 72
CCC1(CC(=O)OC2OC(=O)c3ccccc32)OCCc2c1[nH]c1cc(OC(F)(F)F)ccc21 (configuration not stated)	150
S=C(NC1CCCCC1)N1CCN(c2cnccn2)CC1	176 to 178
Oc1cnc(N2CCN(CCCCn3cc(Cl)cn3)CC2)nc1	131 to 132
O=C(NCCCSc1ccccn1)c1cccs1	81 to 82
Nc1ccc2ccc(Oc3ccccc3Cl)nc2n1	166
CC(=O)OCc1nc2cc(Cl)c(C)cc2c(=O)[nH]1	220 to 225
COc1ccc(Cn2c(N)c(NC(=O)C(C)C)c(=O)[nH]c2=S)cc1OCc1ccccc1	240 to 244
Nn1cc(F)c(=O)[nH]c1=O	196 to 199
COC(=O)C1=C(C(F)F)NC(C)=C(C(=O)OC2CCCC2)C1c1cccc([N+](=O)[O-])c1C (configuration not stated)	154 to 156
CS(=O)c1ccc2[nH]c3cc(C(=O)Nc4nnn[nH]4)nn3c(=O)c2c1 (configuration not stated)	> 350
CS(=O)(=O)N1CCC2(CC1)OCCO2	107 to 109
Cc1oc(-c2ccccc2)nc1COc1ccc(CON=C(CCCCCCC(=O)O)c2ccccc2)cc1	88 to 89
COC(=O)c1cccc2c1ccn2C	194 to 195
CC(=O)Nc1sc([N+](=O)[O-])cc1C(=O)O	238 to 240
CCOc1ccc(N)c(S)c1	104
CC(C)(C)OC(=O)CCc1ccc(C[C@H](NC(=O)OC(C)(C)C)C(=O)O)cc1	88.5 to 90
COCCN(C)C(=O)Nc1c(C(=O)c2ccccc2)[nH]c2cc(Cl)ccc12	66 to 72
COc1ccc(O)c(C2(CCCCSC)Sc3ccccc3N(C)C2=O)c1 (configuration not stated)	148 to 150

Structure (SMILES)	melting point [°C]
CC(CN1CCN(c2ccc(F)cc2)CC1)CN1c2cccc3cccc(c23)S1(=O)=O (configuration not stated)	133
CCOC(=O)C(NC(=O)OC(C)(C)C)c1csc(NC(=O)OCC(Cl)(Cl)Cl)n1 (configuration not stated)	94 to 95
CCN(CC)c1ccc(C(=O)C#Cc2ccncc2)cc1	85 to 87
CC1(C)C(=O)Nc2cc3[nH]c(-c4cnsn4)nc3cc21	> 300
CC1CC(=O)NN=C1c1ccc(NC(=O)C2(Cl)CC2)cc1 (configuration not stated)	189 to 190
O=C(N[C@@H](CCCCNSc1ncccc1[N+](=O)[O-])C(=O)N[C@H](CCC(=O)N1c2ccccc2C[C@H]1C(=O)O)C(=O)O)OCc1ccc2c(c1)OCO2	100 to 110
Cc1ccc(-n2nc(O)c3[nH]c4cc(Cl)cc(Cl)c4c(=O)c3c2=O)c(C)c1	335 to 336
CC(C)(C)C(O)Cn1ccnc1 (configuration not stated)	239 to 241
CCN(CC)CCNCc1ccc(C(=O)Nc2nc(-c3ccccc3)c(-c3ccc(=O)n(C(C)C)n3)s2)cc1	158 to 160
COc1cc(C#CC(=O)O)cc(OC)c1OCc1ccccc1	115 to 116
COC(=O)/C(=C/c1cccc([N+](=O)[O-])c1)CC(=O)O	160 to 161
FC(F)Oc1ccc(C2=NNCC2n2cc(Cl)cn2)cc1 (configuration not stated)	93
O=CN1C(=O)c2ccccc2OC1C(Cl)(Cl)Cl (configuration not stated)	114
CC(=C(c1ccccc1)c1ccccc1)P(C(C)(C)C)C(C)(C)C	130 to 133
Cc1nc2c3c(ccc2n1C)CCC(c1ccccc1)O3 (configuration not stated)	161 to 164
CC(=O)OCc1nc2cc(Cl)c(CBr)cc2c(=O)[nH]1	190 to 195
COC(=O)COc1c2ccccc2cc2c1c1c(C(N)=O)cccc1n2Cc1ccccc1	120 to 125
Cc1nc(N)c2nc(C)n(CCOCCCc3cccnc3)c2c1C	109 to 110
CCCc1nc2c(ccc3cc(C(=O)N4CCC(Cc5ccccc5)CC4)[nH]c32)o1	195 to 196
CS(=O)(=O)c1ccc(-n2nc(CNC(=O)NC34CC5CC(CC(C5)C3)C4)cc2-c2ccccc2)cc1	150 to 155
Clc1ccc(-c2cc(C3CCN(Cc4ccccc4)CC3)n[nH]2)cc1	164 to 167
CCC(C)OC(=O)CCC(S)(C#N)C1=NCCc2cc(OC)c(OC)cc21 (configuration not stated)	120
CCCCOc1ccc(NC(=O)c2cnc(C(=O)O)c(OC)c2)cc1	128 to 130
COc1cc(S(=O)(=O)CCO)ccc1[N+](=O)[O-]	95 to 96

Structure (SMILES)	melting point [°C]
c1cc2c3c(c1)CNc1ccccc1N3CC2	175 to 177
COc1c(C)c2c(c(O)c1C/C=C(\C)CCC(=O)N1C(=O)OC[C@@H]1Cc1ccccc1)C(=O)OC2	112 to 113
CCCCCCCCCC(C)(C)c1cc(C(=O)Nc2ccc(C(=O)O)cc2)ccc1OC	177
CCOC(=O)c1cn2c3c(c(Cl)c(F)cc3c1=O)C(=O)CC2C (single isomer, unassigned; (-))	252 to 254
CCOC(=O)/C=C/C=C(c1cccc([N+](=O)[O-])c1)c1cccc([N+](=O)[O-])c1	105 to 106
CCC1c2cccn2-c2ccc(Br)cc2N1S(=O)(=O)c1ccc(O)cc1 (configuration not stated)	206 to 208
COC(=O)C1=C(C)N=C(OC)N(C(=O)Oc2ccc([N+](=O)[O-])cc2)C1c1ccc2nonc2c1 (configuration not stated)	180 to 183
O=C(O)CN(Cc1cccc(Cn2cc(C3c4ccccc4C=Cc4ccccc43)c(=S)[nH]c2=O)c1)C(=O)OCc1ccccc1	120
COc1ccc(CSc2ccc([N+](=O)[O-])cc2CO)cc1	101 to 102
CC(=O)n1nc(CN2CCc3ccccc3C2)c2ccc(F)cc21	106 to 107
CCOC(=O)/C(=N\OC1(C)CCCC1)c1csc(N)n1	94 to 95
Cn1cnc2cc(F)ccc2c1=O	133 to 135
Clc1ccc(-c2nc(CCCCCCc3nnn[nH]3)oc2-c2ccc(Cl)cc2)cc1	148
O=C1CCC(N2Cc3cc(CNC(=O)c4cccc(C(F)(F)F)c4)ccc3C2=O)C(=O)N1 (configuration not stated)	244 to 246
CCOC(=O)c1cc2cccc(NC(=O)OC(C)(C)C)c2[nH]1	132 to 133
COc1ccc(C(=O)CO)cc1	101 to 103
O=C(CC=C(Cl)Cl)Oc1ccc(F)cc1	47 to 50
COc1ccc(S(=O)(=O)c2ccc(OC)c(CC3CO3)c2)cc1CC1CO1 (configuration not stated)	105 to 108
CCOC(=O)CN1C(=O)[C@@H](NC(=O)OC(C)(C)C)CC(=O)c2ccccc21	86 to 88
O=c1[nH]c(=O)n(COC(CO)CO)cc1Cc1cccc(OCc2ccccc2)c1	113
CC(C)Sc1sc(-c2nnn(C)n2)c2c1C(=O)CC(C)(C)C2	180 to 183
N#Cc1ccc(NC(=O)C(F)(F)C(F)(F)C(F)(F)F)cc1	116 to 118
O=C(Nc1ccc(CCN2CCCCC2)cc1)C1=Cc2cc(-c3ccccc3)ccc2CC1	157 to 159
CCOC(=O)COCc1nnc(S)n1C	86 to 88
